We go through 23 compounds from paper PMC7717691, “Design, synthesis, and anticonvulsant effects evaluation of nonimidazole histamine H3 receptor antagonists/inverse agonists containing triazole moiety” (Journal of Enzyme Inhibition and Medicinal Chemistry, 2020).

One data set deals with T1, H3R (Homo sapiens, UniProt Q9Y5N1).
T1 construct: expressed in transfected cells
The data set is described as follows: CRE-driven luciferase reporter gene assay, H3R antagonistic activity. It counts as cell-based. The following applies: for % Antagonism 100 nM: 100 nM compound; for % Antagonism 100 nM / % Antagonism 1 μM: HEK-293 cells expressing human H3R, mean ± SD of three experiments; for % Antagonism 1 μM: 1 μM compound; for IC50: CRE luciferase assay, HEK-293 cells, Table 1. The method, then:
cAMP-response element (CRE) reporter gene assay has been extensively used to evaluate the efficacy of GPCR antagonists or agonists. […] Initially, compounds and positive controls were tested at two concentrations (100 nM and 1 µM) to obtain the preliminary investigation of their H3R antagonistic activities. In the assays, the antagonistic activities was positively correlated with the rise of the fluorescence value and indicated by the % antagonism. For the prominent compounds IC50 values were determined at additional assays.
Human thalamus poly-A RNA (Clontech, Palo Alto, CA, USA) was used to clone the hH3R gene by RT-PCR. DNA PCR primers were designed in the light of the reported human histamine receptor gene sequences (GenBank accession no.AF140538). HEK-293 cells were cultured and transfected for the luciferase assay. The detailed procedures were described in the previous publication.
Stable HEK-293 cells, which had been co-transfected with H3R and pCRE-Luc, were seeded in a 96-well plate overnight, and were grown to 90–95% confluence[43]^,[44]. Then the cells were treated with various concentrations of tested compounds in serum-free DMEM and incubated for 20 min. Cells were then stimulated with 100 nM Histamine in serum-free DMEM containing 2 µM Forskolin and incubated for 4 h at 37 °C. Firefly luciferase assay kits (Ken-real, Shanghai, China) were used to determine the luciferase activity.

Another data set relates to intracellular cAMP. The data set is described as follows: Effect of compounds administrated alone on the level of intracellular cAMP. The format is cell-based. The following applies: for effect on the level of cAMP when treated alone: compound alone, ANOVA followed by Dunnett's test, Figure 2. An excerpt: It is well known that H3R is a GPCR coupled with Gαi. When the ligand (histamine) binds to H3R, the dissociated Gαi inhibits the activity of adenylate cyclase (AC) and down-regulates the level of intracellular cAMP. In this CREs driven luciferase assay, when cells were pre-treated by H3R antagonists, the downregulation of cAMP would be inhibited, and the level of intracellular cAMP would regain to the initial level.

The next data set relates to MES. The following applies: cited from earlier work.
The next data set relates to PTZ. The following applies: 10 μg & 20 μg icv; cited from earlier work.
Another data set relates to MES-induced convulsions. Put plainly: MES-induced convulsions model. The following applies: mice; for protection against MES-induced convulsions (reduction or abolition of THLE): 10 mg/kg, i.p., 30 min before stimulation, vs saline group. The format is in vivo. An excerpt: Protection for the mice was defined as the reduction or abolition of the tonic hind limb extension (THLE) in the MES model in mice.
Ear stimulation with alternating current (0.2 s, 60 Hz, 50 mA) was used to induce the seizures in mice. The reduction or abolition of the hind limb tonic extension (THLE) of mice was considered protective against the MES-induced seizures[29]^,[48]. […]

Counter-ions that a name gives are not always drawn. Like-named read-outs stand apart in the source and are kept apart here.

T1 sequence (Q9Y5N1 whole entry): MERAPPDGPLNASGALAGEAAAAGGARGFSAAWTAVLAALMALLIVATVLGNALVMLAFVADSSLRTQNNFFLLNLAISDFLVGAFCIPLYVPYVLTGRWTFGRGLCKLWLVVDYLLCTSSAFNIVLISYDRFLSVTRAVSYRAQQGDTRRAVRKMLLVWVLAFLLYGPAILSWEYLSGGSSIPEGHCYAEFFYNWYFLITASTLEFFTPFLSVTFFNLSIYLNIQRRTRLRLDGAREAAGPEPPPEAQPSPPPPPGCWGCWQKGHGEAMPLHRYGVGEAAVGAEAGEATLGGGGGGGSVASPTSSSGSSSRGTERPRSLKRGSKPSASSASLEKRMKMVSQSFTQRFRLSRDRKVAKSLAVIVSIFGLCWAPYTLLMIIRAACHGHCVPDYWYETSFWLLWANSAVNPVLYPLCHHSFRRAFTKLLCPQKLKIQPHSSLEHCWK

The compound `c1cc(-n2cnnc2)ccc1OCCCCCN1CCCCC1` (as salt: HCl) [Compound 3q, 1-(5-(4-(4H-1,2,4-triazol-4-yl)phenoxy)pentyl)piperidine] came in with a melting point of 70 to 74 °C.

With `O=C(c1ccc(OCCCc2cnc[nH]2)cc1)C1CC1` [CPX, ciproxifan, reference compound], on H3R, the “% Antagonism 100 nM” value was 33.96 ± 8.59% and the “% Antagonism 1 μM” value is recorded as 63.05 ± 9.33%. Besides, the “effect on the level of cAMP when treated alone” value (shortened to “effect on the level of cAMP”) in the data set on intracellular cAMP was “no significant effects”.

As to `NC(=NCc1ccc(Cl)cc1)SCCCc1cnc[nH]1` [Clobenpropit], the “MES (mice)” value with MES (0.3, 1, 3 mg/kg i.p.) was “protection”. Also, the “PTZ (rats)” value in the data set on PTZ was “protection”.

`CCN(CC)CCCOc1ccc(-n2cnnc2)cc1.Cl` [Compound 3a, 3-(4-(4H-1,2,4-triazol-4-yl)phenoxy)-N,N-diethylpropan-1-amine hydrochloride] returned a melting point of 105 to 106 °C. The “protection against MES-induced convulsions (reduction or abolition of THLE)” value (shortened to “protection … (reduction or abolition of THLE)”) in the data set with MES-induced convulsions is given as “moderate protection”. In addition, at H3R, the “% Antagonism 100 nM” value was determined as 49.85 ± 9.73%, the “% Antagonism 1 μM” value stood at 223.76 ± 7.56% and the IC50 worked out at 2990 nM. The “effect on the level of cAMP” value with intracellular cAMP was “no significant effects”.

As for `CCCN(CCC)CCCOc1ccc(-n2cnnc2)cc1.Cl` [Compound 3b, 3-(4-(4H-1,2,4-triazol-4-yl)phenoxy)-N,N-dipropylpropan-1-amine hydrochloride], the melting point was 180 to 183 °C. In addition, at H3R, the “% Antagonism 100 nM” value worked out at 13.24 ± 4.83% and the “% Antagonism 1 μM” value turned out to be 15.02 ± 4.03%.

In the case of `Cl.c1cc(-n2cnnc2)ccc1OCCCN1CCCC1` [Compound 3c, 4-(4-(3-(pyrrolidin-1-yl)propoxy)phenyl)-4H-1,2,4-triazole hydrochloride], the melting point lay within 120 to 122 °C. Moreover, the “protection … (reduction or abolition of THLE)” value with MES-induced convulsions is “did not achieve a significant difference from the control group”. In addition, at H3R, the “% Antagonism 100 nM” value came to 32.23 ± 5.69%, the “% Antagonism 1 μM” value is on record as 143.98 ± 16.16% and the IC50 turned out to be 553 nM. The “effect on the level of cAMP” value in the data set with intracellular cAMP was “no significant effects”.

As for `Cl.Cl.c1cc(-n2cnnc2)ccc1OCCCN1CCNCC1` [Compound 3d, 1-(3-(4-(4H-1,2,4-triazol-4-yl)phenoxy)propyl)piperazine dihydrochloride], the melting point was in the range of 146 to 148 °C. For the same compound, on H3R, the “% Antagonism 100 nM” value came to 11.33 ± 5.86% and the “% Antagonism 1 μM” value stood at 79.4 ± 4.50%.

`CN1CCN(CCCOc2ccc(-n3cnnc3)cc2)CC1.Cl` [Compound 3e, 1-(3-(4-(4H-1,2,4-triazol-4-yl)phenoxy)propyl)-4-methylpiperazine hydrochloride] had a melting point of 220 to 223 °C. For the same compound, on H3R, the “% Antagonism 100 nM” value came to 9.86 ± 0.87% and the “% Antagonism 1 μM” value is reported as 21.78 ± 3.04%.

Compound `c1ccc(N2CCN(CCCOc3ccc(-n4cnnc4)cc3)CC2)cc1` [Compound 3f, 1-(3-(4-(4H-1,2,4-triazol-4-yl)phenoxy)propyl)-4-phenylpiperazine] returned a melting point of 172 to 174 °C. In addition, on H3R, the “% Antagonism 100 nM” value came out at 9.96 ± 10.9% and the “% Antagonism 1 μM” value is 24.41 ± 6.30%.

For the compound `Cl.c1cc(-n2cnnc2)ccc1OCCCN1CCOCC1` [Compound 3g, 4-(3-(4-(4H-1,2,4-triazol-4-yl)phenoxy)propyl)morpholine hydrochloride], the melting point was 237 to 239 °C. In the data set on MES-induced convulsions, the “protection … (reduction or abolition of THLE)” value is recorded as “moderate protection”. Moreover, on H3R, the “% Antagonism 100 nM” value is listed as −0.76 ± 4.87% and the “% Antagonism 1 μM” value came to 20.24 ± 7.56%.

Compound `c1cc(-n2cnnc2)ccc1OCCCN1CCCCC1` [Compound 3h, 1–(3-(4-(4H-1,2,4-triazol-4-yl)phenoxy)propyl)piperidine] came in with a melting point of 249 to 252 °C. Besides, the “protection … (reduction or abolition of THLE)” value with MES-induced convulsions was “moderate protection”. Further, on H3R, the “% Antagonism 100 nM” value is on record as 10.56 ± 7.94%, the “% Antagonism 1 μM” value was 239.79 ± 3.17% and it took 127 nM to reach half-maximal inhibition (IC50). Moreover, the “effect on the level of cAMP” value in the data set with intracellular cAMP is given as “no significant effects”.

In the case of `c1ccc(C2CCN(CCCOc3ccc(-n4cnnc4)cc3)CC2)cc1` [Compound 3i, 1-(3-(4-(4H-1,2,4-triazol-4-yl)phenoxy)propyl)-4-phenylpiperidine], the melting point was in the range of 124 to 126 °C. Moreover, on H3R, the “% Antagonism 100 nM” value is recorded as 5.19 ± 2.06% and the “% Antagonism 1 μM” value came out at 16.45 ± 1.90%.

For the compound `NC(=O)C1CCN(CCCOc2ccc(-n3cnnc3)cc2)CC1` [Compound 3j, 1-(3-(4-(4H-1,2,4-triazol-4-yl)phenoxy)propyl)piperidine-4-carboxamide], the melting point is 196 to 198 °C. Also, on H3R, the “% Antagonism 100 nM” value is −4.2 ± 3.11% and the “% Antagonism 1 μM” value is reported as 6.12 ± 2.05%.

As to `Cc1nncn1-c1ccc(OCCCN2CCCCC2)cc1.Cl` [Compound 3k, 1-(3-(4–(3-methyl-4H-1,2,4-triazol-4-yl)phenoxy)propyl)piperidine hydrochloride], the melting point was 240 to 242 °C. Further, the “protection … (reduction or abolition of THLE)” value in the data set on MES-induced convulsions was “did not achieve a significant difference from the control group”. On H3R, the “% Antagonism 100 nM” value is 133.91 ± 8.91%, the “% Antagonism 1 μM” value is listed as 183.54 ± 14.41% and half-maximal inhibition (IC50) was put at 21 nM. In addition, the “effect on the level of cAMP” value in the data set on intracellular cAMP is reported as “no significant effects”.

Compound `c1ccc(-c2nncn2-c2ccc(OCCCN3CCCCC3)cc2)cc1` [Compound 3l, 1-(3-(4-(3-phenyl-4H-1,2,4-triazol-4-yl)phenoxy)propyl)piperidine] gave a melting point of 88 to 90 °C. Also, the “protection … (reduction or abolition of THLE)” value in the data set on MES-induced convulsions is “moderate protection”. Also, on H3R, the “% Antagonism 100 nM” value amounted to 148.62 ± 4.43%, the “% Antagonism 1 μM” value is listed as 169.04 ± 15.04% and half-maximal inhibition (IC50) was put at 7.81 nM. Also, the “effect on the level of cAMP” value in the data set with intracellular cAMP is reported as “no significant effects”.

`c1ccc(-c2ccc(-c3nncn3-c3ccc(OCCCN4CCCCC4)cc3)cc2)cc1` [Compound 3n, 1-(3-(4-(3-([1,1’-biphenyl]-4-yl)-4H-1,2,4-triazol-4-yl)phenoxy)propyl)piperidine] showed a melting point of 66 to 68 °C. Also, at H3R, the “% Antagonism 100 nM” value came to 1.03 ± 7.79% and the “% Antagonism 1 μM” value came to 3.36 ± 1.27%.

Compound `Cl.c1cc(-n2cnnc2)ccc1OCCN1CCCCC1` [Compound 3o, 1-(2-(4–(4H-1,2,4-triazol-4-yl)phenoxy)ethyl)piperidine hydrochloride] showed a melting point of 85 to 87 °C. Also, the “protection … (reduction or abolition of THLE)” value in the data set on MES-induced convulsions is “moderate protection”. On H3R, the “% Antagonism 100 nM” value is 45.04 ± 3.61%, the “% Antagonism 1 μM” value amounted to 94.20 ± 2.60% and inhibition was half-maximal at 250 nM (IC50).

The compound `Cl.c1cc(-n2cnnc2)ccc1OCCCCN1CCCCC1` [Compound 3p, 1-(4–(4-(4H-1,2,4-triazol-4-yl)phenoxy)butyl)piperidine hydrochloride] had a melting point of 80 to 82 °C. Moreover, the “protection … (reduction or abolition of THLE)” value in the data set on MES-induced convulsions is “did not achieve a significant difference from the control group”. Further, on H3R, the “% Antagonism 100 nM” value amounted to 25.00 ± 3.95%, the “% Antagonism 1 μM” value was determined as 90.52 ± 5.71% and the IC50 amounted to 3440 nM.

Take `c1cc(-n2cnnc2)ccc1OCCCCCN1CCCCC1` [Compound 3q, 1-(5-(4-(4H-1,2,4-triazol-4-yl)phenoxy)pentyl)piperidine]: on H3R, the “% Antagonism 100 nM” value worked out at 1.88 ± 12.38% and the “% Antagonism 1 μM” value came to 2.39 ± 13.85%.

Take `NCCc1c[nH]cn1` [Histamine]: the “effect on the level of cAMP” value in the data set with intracellular cAMP is recorded as “no significant effects”.

Consider `CCCCCCOc1ccc(-n2cnnc2)cc1` [III], for which, in the data set on MES (10 mg/kg i.p.), the “MES (mice)” value is “protection”.

With `C[C@@H](N)Cc1cnc[nH]1` [RAMH, R-(α)-methyl-histamine, reference compound], in the data set on MES-induced convulsions (10 mg/kg i.p. alone, p > 0.05 vs saline), the “effect on duration of THLE, administered alone” value is given as “did not affect the duration of THLE”.

In the case of `C=C[C@@]1(C)CC(=O)[C@]2(O)[C@@]3(C)[C@@H](O)CCC(C)(C)[C@@H]3[C@H](O)[C@H](OC(C)=O)[C@@]2(C)O1` [forskolin, reference compound], the “rise of the cAMP level compared to the control group” value in the data set on intracellular cAMP (forskolin 2 µM) was “more than 200 times”.
